In the assay the test system is CEM cells HIV-1 protection, formazan growth assay. Briefly: NCI AIDS Antiviral Assay. The note with it: for IC50: measured here: growth of uninfected CEM cells. The method, boiled down: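 Screen of anti-HIV-1 activity in human CEM cells using a formazan-based growth measurement at five drug concentrations. Hits with 50% or greater protection were repeated, and confirmation required reproducible complete protection.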

SMILES strings stand for the structures. Where “and” joins values, the source holds several entries; their conditions need not be identical. Identical values can stand only once. Calls of active or inactive are those of the source.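 Rule for the calls: active = compounds giving half or more protection of infected cells from virus-caused growth loss, again on retest; inactive = the rest.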 Some results are limits rather than exact numbers.

A word on the EC50: it is the concentration that produces a half-maximal response. Broadly, the IC50 is the point on the concentration scale where inhibition reaches its midpoint. Low values mean higher potency, high ones lower potency. On to `Nc1nc(Cl)c(C=O)c(NCC2(CO)CC(CCc3ccccc3)C2)n1` (stereo not drawn), for which the EC50 was greater than 200 µM and the IC50 was 3.98 µM.
As for `CCOC(=O)c1ccc(/C=C/c2cccn2C(=O)OC(C)(C)C)[nH]1`, the result was inactive.
For `O=C(O)c1ccc(NNc2cc(=O)[nH]c(=O)[nH]2)cc1`, the EC50 is greater than 200 µM and the concentration for half-maximal inhibition (IC50) was determined as 107 µM.
On the same counts, the results for `COc1cc2c(c(OC)c1OC)C1CCCCC1SCC2=O` (stereo not drawn) are greater than 155 µM and greater than 155 µM.
On the same counts, the results for `Cc1c(CN2CCOCC2)c(CN2CCOCC2)c(C)n1-c1ccc(Cl)cn1` are greater than 200 µM and greater than 200 µM.
Taken in the same sequence, the figures for `O=C(OCCN1CCCC1)c1cc2ccccc2[nH]1` were greater than 200 µM and greater than 100 µM.
As for `S=C1NC2=C(CSC/C2=C\c2ccccc2)C(c2ccccc2)N1` (stereo not drawn), the EC50 was greater than 200 µM and the IC50 was determined as 37.2 µM.
In the case of `c1ccc(-c2nnc3sc4ccccc4n23)cc1`, the EC50 is greater than 200 µM and the IC50 is greater than 200 µM.
Consider `O=C1OC[C@@H]2[C@@H](O)CCCCCN12`, for which the EC50 was greater than 200 µM and the concentration for half-maximal inhibition (IC50) is greater than 200 µM.
As to `COC(=O)c1ncn(C(C(=O)OC)C(=O)OC)c1O`, the EC50 was greater than 200 µM and the half-inhibitory concentration (IC50) is greater than 200 µM.
For the compound `CN(C)c1ccc(C=NC23CC4CC(CC(C4)C2)C3)cc1`, the EC50 was greater than 63.1 µM and the half-inhibitory concentration (IC50) is greater than 63.1 µM.
With `COc1ccc(CCNC=O)cc1OC`, the outcome was inactive.
Regarding `C1=CC2C=CC(C=C1)[PH+]2c1ccccc1.[C-]#[O+].[C-]#[O+].[C-]#[O+].[C-]#[O+].[C-]#[O+].[Cr]` (stereo not drawn), the EC50 is greater than 6.76 µM and the 50% inhibitory concentration (IC50) was greater than 6.76 µM.
As to `CCN(CC)C(=S)N=N/C(C)=C1/C=CC=CN1O`, the EC50 was greater than 200 µM and the half-inhibitory concentration (IC50) amounted to 1.1 µM.
On the same counts, the results for `CC1(C)CC(=O)C(CC2C(=O)CCCC2=O)C(=O)C1` are greater than 955 µM and 891 µM.
On the same counts, the results for `Clc1cc2nnn(C3CCCO3)c2cc1Cl` (stereo not drawn) are greater than 200 µM and 123 µM.
Taken in the same sequence, the figures for `CC(O)c1ccc2c(c1)C(O)C[C@H]1[C@](C)(CO)CCC[C@]21C` (stereo partly drawn) were greater than 200 µM and 141 µM.
On to `COc1cc(/C=C2/N=C(c3ccccc3)N(C3=NNC4(C(=O)N3)c3ccccc3-c3ccccc34)NC2=O)ccc1O`, for which the EC50 was greater than 100 µM and the concentration for half-maximal inhibition (IC50) is 75.9 µM.
On the same counts, the results for `O=S1OCC2(CO1)COS(=O)OC2` (stereo not drawn) are greater than 200 µM and 91.2 µM.
In the case of `N#Cc1c(=O)n(-c2ccccc2)c(O)c2c(N)n[nH]c12`, the EC50 is greater than 200 µM and the IC50 was 89.1 µM.
As for `Cc1nn(-c2ccccc2)c2c1CC(=O)Nc1ccccc1-2`, the EC50 is greater than 2 µM and the concentration for half-maximal inhibition (IC50) was 0.112 µM.
Taken in the same sequence, the figures for `O=[N+]([O-])c1ccc(-c2nnc(C34CC5CC(CC(C5)C3)C4)o2)cc1` were greater than 200 µM and greater than 200 µM.
For `CC(=O)Nc1sc([N+](=O)[O-])cc1S(=O)(=O)c1ccc(Cl)cc1`, the EC50 is greater than 200 µM and the IC50 turned out to be 1.48 µM.
For `O=C(CSc1nc2[nH]ncc2c(=O)[nH]1)c1ccc(Cl)cc1`, the EC50 was greater than 200 µM and the 50% inhibitory concentration (IC50) is greater than 200 µM.
With `O=C1N(Cc2ccccc2)CC(O)CN1Cc1ccccc1`, the EC50 was greater than 200 µM and the half-maximal inhibitory concentration (IC50) stood at 174 µM.
As to `Cc1ccc(C)c(NC(=O)CCc2n[nH]c(=S)o2)c1`, the EC50 was greater than 9.33 µM and the IC50 is greater than 9.33 µM.
For the compound `CCCCN(CCCC)C(=O)C(=O)C(C#N)c1ccc(C)cc1` (stereo not drawn), the result was inactive.
For `COC(=O)C(/C(=N\O)C(=O)Nc1ccc(Br)cc1)c1nc2ccccc2[nH]c1=O` (stereo not drawn), the EC50 was greater than 141 µM and the 50% inhibitory concentration (IC50) is greater than 141 µM.
Take `c1ccc(C(NC2=NCCO2)c2ccccc2)cc1`: the result was inactive.
On the same count and under the same terms, the entry for `Cc1cccc(-c2cc(=O)c3cc(C)c(C)c(C(=O)O)c3o2)c1` is “inactive”.
As for `Cn1cc2ccccc2c1-c1nc(F)nc(Oc2ccc3c(c2)CC[C@@H]2C3CC[C@@]3(C)C2C[C@H](O)[C@@H]3O)n1` (stereo partly drawn), the EC50 is greater than 10 µM and the IC50 was greater than 10 µM.
Take `O=[N+]([O-])c1ccc(CSSCc2ccc([N+](=O)[O-])cc2)cc1`: the EC50 is greater than 200 µM and the half-maximal inhibitory concentration (IC50) came to 17.8 µM.
Taken in the same sequence, the figures for `C/C(O)=C/c1nc2ccccc2[nH]1` were greater than 1450 µM and 1260 µM.
`COC(=O)CP1(=O)OC2C(C3CCC2(C)C3(C)C)N1c1cc(C(F)(F)F)cc(C(F)(F)F)c1` (stereo not drawn): the EC50 was greater than 200 µM.
Consider `O=c1[nH]nc(-c2ccccc2)n1/N=C\c1ccccc1`, for which the EC50 is greater than 200 µM and the concentration for half-maximal inhibition (IC50) was greater than 200 µM.
Turning to `COc1ccc(CCN2CCC(C#N)(c3ccc(OC)c(OC)c3)CC2)cc1OC`, the EC50 was greater than 57.5 µM and the IC50 was greater than 57.5 µM.
As to `C1=C(c2ccccc2)SC(N2CCCCC2)S1` (stereo not drawn), the outcome was inactive.
`COC1=CC(=O)[C@H]2[C@H](C)C(c3ccccc3)[C@@]2(C)C1=O` (stereo partly drawn): the EC50 is greater than 933 µM and the half-maximal inhibitory concentration (IC50) amounted to 603 µM.
Taken in the same sequence, the figures for `CCOC(=O)C1CC(C(=O)OCC)(c2ccccc2)CCC1=O` (stereo not drawn) were greater than 58.9 µM and 47.9 µM.
As for `C/C(N=NS(=O)(=O)c1ccc(C)cc1)=C1\C=CC=CN1O`, the result was inactive.
Consider `O=S(=O)(SS(=O)(=O)c1ccc(Cl)cc1)c1ccc(Cl)cc1`, for which the EC50 is greater than 93.3 µM and the IC50 is greater than 93.3 µM.
On to `N#CN1CCC=C(c2cc3ccccc3[nH]2)C1`, for which the EC50 is greater than 115 µM and the half-maximal inhibitory concentration (IC50) was 60.3 µM.
On the same counts, the results for `COc1c(C(C)C)cc(O)c2c1CCC1C(C)=C(C(=O)O)CCC21C` (stereo not drawn) are greater than 200 µM and 110 µM.
Taken in the same sequence, the figures for `CCOC(=O)N1C2C=C(C)C(ON2C(=O)c2ccccc2)C2C(C)C(=O)N21` (stereo not drawn) were greater than 355 µM and greater than 355 µM.
Taken in the same sequence, the figures for `O=[N+]([O-])C1=C(c2ccccc2)SC=C(c2ccccc2)S1` were greater than 200 µM and 9.77 µM.
`Cc1ccccc1SSCCN`: the result was inactive.
Turning to `COC(=O)c1ccc(NCC2=CC(=O)c3ccccc3C2=O)cc1`, the EC50 is greater than 200 µM and the IC50 was found to be 2.09 µM.
Taken in the same sequence, the figures for `COC(=O)c1cc(-c2c[nH]cc2C(=O)OCc2ccccc2)cn1S(=O)(=O)c1ccc(C)cc1` were greater than 200 µM and 17.8 µM.
Take `COc1cccc(/C=N\NC(=O)C(C)SC(C)C(=O)N/N=C/c2cccc(OC)c2)c1` (stereo not drawn): the outcome was inactive.
For the compound `Cc1cn(C2C[C@@H](/[N+]([O-])=C\c3ccccc3)C(CO[Si](C)(C)C(C)(C)C)O2)c(=O)[nH]c1=O` (stereo partly drawn), the EC50 was greater than 200 µM and the IC50 was determined as 24.5 µM.
On the same counts, the results for `CN(C)P(=O)(N(C)C)N(C)C` are greater than 200 µM and greater than 200 µM.
Taken in the same sequence, the figures for `O=C(NC1=NCC(CN2CCN(c3ccccc3)CC2)O1)Nc1ccccc1` (stereo not drawn) were greater than 200 µM and 155 µM.
On the same counts, the results for `CCOC(=O)CC(N1CC1)N1CC1` are greater than 200 µM and greater than 200 µM.
As to `CCOC(=O)C(=Cc1ccc(Oc2ccccc2)cc1)C(=O)OCC`, the EC50 was greater than 11.2 µM and the IC50 was greater than 11.2 µM.
Turning to `CCOC(=O)c1cn2c(ccc3sc4ccccc4c(=O)c32)n1`, the EC50 was greater than 200 µM and the 50% inhibitory concentration (IC50) is greater than 200 µM.
Consider `Cc1cccnc1NC(=S)Nc1cccc(C(F)(F)F)c1`, for which the EC50 is greater than 200 µM and the concentration for half-maximal inhibition (IC50) was determined as 16.2 µM.
`C(=Nc1ccccc1C1SCCCS1)c1ccccc1`: the EC50 was greater than 200 µM and the 50% inhibitory concentration (IC50) was greater than 200 µM.
Consider `O=[N+]([O-])c1ccccc1S(=O)(=O)c1ccc(Cl)cc1`, for which the concentration giving a half-maximal response (EC50) is 12.3 µM and 20.9 µM; the 50% inhibitory concentration (IC50) was 50.1 µM and 81.3 µM.
In the case of `NCCCCNOCCCN`, the EC50 was greater than 200 µM and the IC50 is greater than 200 µM.
With `Nc1nc(Cl)c(N)c(NCC2(CO)CC(CCCc3ccccc3)C2)n1` (stereo not drawn), the EC50 is greater than 0.2 µM and the concentration for half-maximal inhibition (IC50) turned out to be 0.186 µM.
On the same counts, the results for `COC(=O)C(C)(C)C(OP(=S)(N(C)C)N(C)C)=C(C)C` are greater than 22.4 µM and greater than 22.4 µM.
On the same counts, the results for `COC(=O)C1(C(=O)OC)Cc2ccc(C)cc2C2=C1C(=O)c1ccccc1C2=O` are greater than 200 µM and 5.13 µM.
On the same counts, the results for `CC1(C)C(=O)CC[C@@]2(C)C1CC[C@]1(C)C2CC=C2[C@@H]3C[C@](C)(C(=O)O)CC[C@]3(C)CCC21C` (stereo partly drawn) are greater than 200 µM and 95.5 µM.
For the compound `Cc1c2ccccc2nc(CSCc2ccccc2)[n+]1[O-]`, the EC50 was greater than 200 µM and the IC50 amounted to 162 µM.
In the case of `O=C1CCCCC/C=C2/CC[C@H](Sc3ccccc3)[C@@H]12`, the EC50 was greater than 200 µM and the concentration for half-maximal inhibition (IC50) was 53.7 µM.
On the same counts, the results for `C=C1C2CC3CCC2C(OC(=O)c2ccccc2C(=O)O)C13` (stereo not drawn) are greater than 200 µM and greater than 200 µM.
Consider `CC1(C)OC1COc1c2occc2cc2ccc(=O)oc12` (stereo not drawn), for which the EC50 was greater than 155 µM and the IC50 amounted to 74.1 µM.
As for `Cc1ccc2c(c1)-c1[nH]c3ccccc3c1CS2`, the outcome was inactive.
Consider `CSCCCNC(=O)c1csc(-c2csc(CCN)n2)n1`, for which the EC50 is greater than 661 µM and the half-inhibitory concentration (IC50) came to 85.1 µM.
`CCOc1ccc(NC(=O)C2=C(C)NC(C)=C(C(=O)Nc3ccc(OCC)cc3)C2c2ccc([N+](=O)[O-])cc2)cc1`: the EC50 is greater than 12.9 µM and the 50% inhibitory concentration (IC50) is greater than 12.9 µM.
`CS(=O)(=O)NC1C(=O)c2ccccc2OC1c1ccccc1` (stereo not drawn): the EC50 was greater than 200 µM and the IC50 is greater than 200 µM.
For the compound `O=[N+]([O-])C(=C(Cl)Cl)C(Cl)=C(Cl)Cl`, the EC50 is greater than 200 µM and the concentration for half-maximal inhibition (IC50) is greater than 200 µM.
For `OC1C2[C@@H](O)CCCN2C[C@@H](O)[C@H]1O` (stereo partly drawn), the EC50 was greater than 200 µM and the IC50 was greater than 200 µM.
On to `CC(SCCCCCCCCCCSC(C)C(=O)O)C(=O)O` (stereo not drawn), for which the EC50 is greater than 141 µM and the IC50 was greater than 141 µM.
Consider `CN(C)CCCNC(=O)CNC(=O)c1cc(NC(=O)c2cc(NC(=O)c3cc(NC(=O)CCNC(=O)c4cc(NC(=O)c5cc(NC(=O)c6nccn6C)cn5C)cn4C)cn3C)cn2C)cn1C`, for which the result was inactive.

Values taken from PubChem BioAssay AID179 (DTP/NCI, 2004).
